Measurements: patent publication US20040038950A1, “Pharmaceutical composition for treating IL-1 related diseases or disorders” (priority 2002, published 2004)

Tests used:
type I collagen mRNA = experiment: RT-PCR of type I collagen mRNA in chondrocytes; type: cell-based, human; conditions: 100 μM
Description: (§1) Chondrocytes were isolated from the knee joint of patient undergoing a knee replacement due to osteoarthritis. Cartilage was digested with 0.2% protease Type XIV (Sigma) for 1 hour, followed by 3-hour incubation with 0.2% collagenase Type IA (Sigma) at 37° C. Following the incubation, the undigested cartilage fragments were removed using a 70 μm Nylon sieve. Chondrocytes were washed with DPBS and maintained in monolayer culture for 7 days in Dulbecco's modified Eagle's medium (DMEM; Life Technologies Inc.) which contained 10% fetal bovine serum (FBS; Life Technologies), 100 units/ml penicillin-streptomycin (Life Technologies) and 25 μg/ml L-ascorbic acid (Sigma). All experiments were performed with primary or first passage cells. The preparation of chondrocytes in alginate beads was carried out with 4×10^6 cells per 1 ml of alginate. Alginate cultures were maintained for 7 days at 37° C., 5% CO2 and 95% humidity and incubated with various concentrations of DHEA (0, 10, 50 or 100 μM) for a varing period of time. DHEA was purchased from Sigma and used after dissolving either in ethanol or dimethyl sulfoxide (DMSO). After a desired incubation period, cells were harvested by solubilizing the alginate beads in citrate buffer (55 mM sodium citrate, 0.15 M NaCl, pH 7.0) for 10 min at 37° C. and by centrifugation (300 g, 5 min).
(§2) Total RNA from chondrocytes was extracted using RNeasy Mini Kit (QIAGEN). Reverse transcription from 1 μg of total RNA was conducted using First Strand cDNA Synthesis Kit (MBI Fermentas) according to manufacturer's recommendation with random hexamers. […] All reactions were determined to be in the linear range of amplification with the cycle number ranging from 14 to 30. The PCR products were analyzed by separation on a 2% agarose gel followed by ethidium bromide staining. Following electrophoresis, photographs were taken and analyzed using a densitometric program (TINA; Raytest Isotopenmeβgerate, Germany). […] After normalizing with respect to GAPDH, percentage increase or decrease was determined. […]

[1] = tested on: (IL-1β)-induced iNOS mRNA; experiment: (IL-1β)-induced iNOS gene expression in chondrocytes; type: cell-based, human; conditions: 10, 50, 100 μM with IL-1β, 72 hr
Description: (§3) Sixteen hours prior to a treatment, the complete culture medium was replaced with a serum-free medium. Chondrocyte alginate bead cultures were then treated with IL-1β ([…], (Calbiochem) and DHEA (0, 10, 50 or 100 μM) for 3 days.
(§4) Total RNA from chondrocytes was extracted using RNeasy Mini Kit (QIAGEN). Reverse transcription from 1 μg of total RNA was conducted using First Strand cDNA Synthesis Kit (MBI Fermentas) according to manufacturer's recommendation with random hexamers. The resulting cDNA was then amplified by polymerase chain reaction using AccuPower PCR Premix (Bioneer, Korea) in a final volume of 20 μl using three thermocycler temperatures (30 sec at […], 30 sec at 60° C., and 30 sec at […]). All reactions were determined to be in the linear range of amplification with the cycle number ranging from 14 to 30. The PCR products were analyzed by separation on a 2% agarose gel followed by ethidium bromide staining. Following electrophoresis, photographs were taken and analyzed using a densitometric program (TINA; Raytest Isotopenmeβgerate, Germany). Integrated density values for the genes in question were then normalized to the glyceraldehyde-3-phosphate dehydrogenase (GAPDH) values for a semiquantitative assessment. After normalizing with respect to GAPDH, percentage increase or decrease was determined. Each experiment was repeated at least three times. […]

human chondrocyte [2] = experiment: Cell proliferation, [3H]thymidine assay in chondrocyte alginate bead culture; type: cell-based; conditions: 10-100 μM DHEA
Description: (§5) Chondrocytes were isolated from the knee joint of patient undergoing a knee replacement due to osteoarthritis. Cartilage was digested with 0.2% protease Type XIV (Sigma) for 1 hour, followed by 3-hour incubation with 0.2% collagenase Type IA (Sigma) at 37° C. Following the incubation, the undigested cartilage fragments were removed using a 70 μm Nylon sieve. Chondrocytes were washed with DPBS and maintained in monolayer culture for 7 days in Dulbecco's modified Eagle's medium (DMEM; Life Technologies Inc.) which contained 10% fetal bovine serum (FBS; Life Technologies), 100 units/ml penicillin-streptomycin (Life Technologies) and 25 μg/ml L-ascorbic acid (Sigma). All experiments were performed with primary or first passage cells. The preparation of chondrocytes in alginate beads was carried out with 4×10^6 cells per 1 ml of alginate. […]
(§6) For cell proliferation, [^3H]thymidine assay was performed on a 96-well plate (Nunc) with one alginate bead per well. […] After collecting the cells using a cell harvester (Wallac), [^3H]thymidine uptake was quantitated by measuring β emission on a β-counter (Wallac). […] The ^35SO4-labeled proteoglycan content was measured by a liquid scintillation counter (Wallac). The total cellular DNA was determined by Indole assay.

MMP-1 mRNA = experiment: RT-PCR of MMP-1 mRNA in chondrocytes; type: cell-based, human; conditions: 100 μM
Description: as §1, §4

[3] = tested on: (IL-1β)-induced MMP-1 mRNA; experiment: (IL-1β)-induced MMP-1 mRNA expression in chondrocytes, RT-PCR; type: cell-based, human; conditions: 72 hr
Description: as §3, §4

MMP-1 = experiment: Western blot of MMP-1 in chondrocyte lysates; type: cell-based, human; conditions: 0, 10 or 100 μ DHEA, three days
Description: as §1, with “After a desired incubation period, cells were harvested by solubilizing the alginate beads in citrate buffer (55 mM sodium citrate, 0.15 M NaCl, pH 7.0) for 10 min at 37° C. and by centrifugation (300 g, 5 min).” left out
To investigate the effect of DHEA on the protein concentration, Western blot analysis was performed. […] Protein concentration of the supernatant was determined by Bio-Rad protein assay (Bio-Rad, USA) using bovine serum albumin (BSA) as a standard. […]

[4] = tested on: (IL-1β)-induced Cox-2 gene expression; experiment: (IL-1β)-induced Cox-2 gene expression in chondrocytes; type: cell-based, human; conditions: 10, 50, 100 μM with IL-1β, 72 hr
Description: as §3, §4

[5] = tested on: (IL-1β)-induced MMP-3 mRNA; experiment: (IL-1β)-induced MMP-3 mRNA expression in chondrocytes, RT-PCR; type: cell-based, human; conditions: 100 μM DHEA with IL-1β, 72 hr
Description: as §3, §4

human chondrocyte [6] = experiment: GAG assay (35SO4-labeled proteoglycan synthesis) in chondrocyte alginate culture; type: cell-based; conditions: DHEA present in chondrocyte cultures, same time period
Description: as §5, §6

MMP-3 mRNA = experiment: RT-PCR of MMP-3 mRNA in chondrocytes; type: cell-based, human
Description: as §1, §2

Structure (SMILES): C[C@]12CC[C@H](O)CC1=CC[C@@H]1[C@@H]2CC[C@]2(C)C(=O)CC[C@@H]12 [DHEA, dehyroepiandrosterone]
- type I collagen mRNA, maximal inhibition (type I collagen mRNA; 72 hours): 28%
- type I collagen production, reduced by (type I collagen mRNA; after 24-72 hr of culture): less than 50%
- type I collagen mRNA expression (type I collagen mRNA; after 72 hr): markly inhibited
- (IL-1β)-induced up-regulation of iNOS mRNA [1]: suppressed
- effect on cell proliferation (human chondrocyte [2]; after day 5): insignificant
- cell proliferation (human chondrocyte [2]; as early as day 3 of culture): slightly reduced
- MMP-1 level, inhibition (MMP-1 mRNA; 72 hours): 48%
- MMP-1 mRNA level, reduced by (MMP-1 mRNA; after 24 hr): 43%
- MMP-1 mRNA level, reduced by (MMP-1 mRNA; after 48 hr): 35%
- MMP-1 mRNA expression (MMP-1 mRNA; after 72 hr): markly inhibited
- (IL-1β)-induced up-regulation of MMP-1 mRNA, inhibition ([3]; 10 μM DHEA with IL-1β): 74%
- (IL-1β)-induced up-regulation of MMP-1 mRNA, inhibition ([3]; 50 μM DHEA with IL-1β): 53%
- MMP-1 protein level (Western blot) (MMP-1): reduced with increasing DHEA concentration
- (IL-1β)-induced Cox-2 gene expression [4]: no significantly change
- (IL-1β)-induced expression of MMP-3 mRNA, inhibition [5]: 73%
- rate of proteoglycan synthesis (human chondrocyte [6]): remained unchanged
- MMP-3 mRNA expression, decreased by (MMP-3 mRNA; 100 μM, after 24 hr of culture): 73%
- inhibitory activity of DHEA on the MMP-3, increase by (MMP-3 mRNA; 100 μM, after 72 hr): 131%
- MMP-3 production, inhibition (MMP-3 mRNA; 10-100 μM, 72 hours, not dose-dependent): 82-93%
